Drawing on patent publication US20220363686A1 (AiCuris GmbH & Co. KG, priority 2018, published 2022), this text covers EC50 and CC50 for 3 molecules.

The subject of one series is HBV. The series is described as follows: Determination of HBV DNA from the supernatants of HepAD38 cells (anti-HBV activity). The class given is cell-based, hepatitis B virus. The settings on record: Hepatitis B virus, HePAD38, 144 h, HBV DNA in HepAD38 supernatant, day 6, qPCR; read-out: Cell Activity. As to the method: The anti-HBV activity was analysed in the stable transfected cell line HepAD38, which has been described to secrete high levels of HBV virion particles (Ladner et al., 1997). In brief, HepAD38 cells were cultured at 37° C. at 5% CO2 and 95% humidity in 200 μl maintenance medium, which was Dulbecco's modified Eagle's medium/Nutrient Mixture F-12 (Gibco, Karlsruhe), 10% fetal bovine serum (PAN Biotech Aidenbach) supplemented with 50 μg/ml penicillin/streptomycin (Gibco, Karlsruhe), 2 mM L-glutamine (PAN Biotech, Aidenbach), 400 μg/ml G418 (AppliChem, Darmstadt) and 0.3 μg/ml tetracycline. Cells were subcultured once a week in a 1:5 ratio, but were usually not passaged more than ten times. For the assay 60,000 cells were seeded in maintenance medium without any tetracycline into each well of a 96-well plate and treated with serial half-log dilutions of test compound. To minimize edge effects the outer 36 wells of the plate were not used but were filled with assay medium. On each assay plate six wells for the virus control (untreated HepAD38 cells) and six wells for the cell control (HepAD38 cells treated with 0.3 μg/ml tetracycline) were allocated, respectively. In addition, one plate set with reference inhibitors like BAY 41-4109, entecavir, and lamivudine instead of screening compounds were prepared in each experiment. In general, experiments were performed thrice in triplicates. At day 6 HBV DNA from 100 μl filtrated cell culture supernatant (AcroPrep Advance 96 Filter Plate, […] Supor membran, PALL GmbH, Dreieich) was automatically purified on the MagNa Pure LC instrument using the MagNA Pure 96 DNA and Viral NA Small Volume Kit (Roche Diagnostics, Mannheim) according to the instructions of the manufacturer. EC50 values were calculated from relative copy numbers of HBV DNA In brief, 5 μl of the 100 μl eluate containing HBV DNA were subjected to PCR LC480 Probes Master Kit (Roche) together with 1 μM antisense primer […], 0.5 μM sense primer […], 0.3 μM hybprobes […]-FL and LC640-[…]-PH (TIBMolBiol, Berlin) to a final volume of 12.5 μl. The PCR was performed on the Light Cycler 480 real time system (Roche Diagnostics, Mannheim) using the following protocol: Pre-incubation for 1 min at 95° C., amplification: 40 cycles×(10 sec at 95° C., 50 sec at 60° C., 1 sec at 70° C.), cooling for 10 sec at 40° C. Viral load was quantitated against known standards using HBV plasmid DNA of pCH-9/3091 (Nassal et al., 1990, Cell 63: 1357-1363) and the LightCycler 480 SW 1.5 software (Roche Diagnostics, Mannheim) and ECso values were calculated using non-linear regression with GraphPad Prism 6 (GraphPad Software Inc., La Jolla, USA).

Series [1] can be described thus: Cell viability assay (AlamarBlue). Conditions: human, HepAD38 cells.
Protocol: Using the AlamarBlue viability assay cytotoxicity was evaluated in HepAD38 cells in the presence of 0.3 μg/ml tetracycline, which blocks the expression of the HBV genome. Assay condition and plate layout were in analogy to the anti-HBV assay, however other controls were used. On each assay plate six wells containing untreated HepAD38 cells were used as the 100% viability control, and six wells filled with assay medium only were used as 0% viability control. In addition, a geometric concentration series of cycloheximide starting at 60 μM final assay concentration was used as positive control in each experiment. After six days incubation period Alamar Blue Presto cell viability reagent (ThermoFisher, Dreieich) was added in 1/11 dilution to each well of the assay plate. After an incubation for 30 to 45 min at 37° C. the fluorescence signal, which is proportional to the number of living cells, was read using a Tecan Spectrafluor Plus plate reader with an excitation filter 550 nm and emission filter 595 nm, respectively. Data were normalized into percentages of the untreated control (100% viability) and assay medium (0% viability) before CC50 values were calculated using non-linear regression and the GraphPad Prism 6.0 (GraphPad Software, La Jolla, USA). Mean EC50 and CC50 values were used to calculate the selectivity index (SI=CC50/EC50) for each test compound.

As to `O=C(c1cc2c(Cl)cc(F)cc2[nH]1)N1CCn2ncc(C(=O)N3CCC(F)(F)C3)c2C1` [Example 140, 4-chloro-2-[3-(3,3-difluoropyrrolidine-1-carbonyl)-4H,5H,6H,7H-pyrazolo[1,5-a]pyrazine-5-carbonyl]-6-fluoro-1H-indole], the EC50 in the series on HBV was less than 1 µM. In series [1], this molecule had a half-maximal cytotoxic concentration (CC50) at 6 days of more than 10 µM.
For `O=C(c1cc2ccccc2[nH]1)N1CCn2ncc(S(=O)(=O)N3CCC(F)(F)CC3)c2C1` [Example 34, 2-{3-[(4,4-difluoropiperidin-1-yl)sulfonyl]-4H,5H,6H,7H-pyrazolo[1,5-a]pyrazine-5-carbonyl}-1H-indole] the same measures were less than 1 µM and more than 10 µM.
Take `O=C(c1cc2c(Cl)cccc2[nH]1)N1CCn2ncc(C(=O)N3CCC(F)(F)C3)c2C1` [Example 99, 4-chloro-2-[3-(3,3-difluoropyrrolidine-1-carbonyl)-4H,5H,6H,7H-pyrazolo[1,5-a]pyrazine-5-carbonyl]-1H-indole]: in the series with HBV, the EC50 was less than 1 µM. The CC50 at 6 days in series [1] is more than 10 µM.

By CC50 is commonly meant the concentration that lowers cell viability or growth by half. A high value points to better tolerance by the cells.
